Results on one compound are retold here after US20240368115A1, “REGULATOR CONTAINING TRICYCLIC DERIVATIVE, PREPARATION METHOD THEREFOR AND APPLICATION THEREOF” (SHUJING BIOPHARMA CO., LTD, priority 2021, published 2024).

The structures appear in SMILES notation.

One experiment deals with T1, 5-HT1A receptor (Homo sapiens, UniProt P08908).
T1 construct: expressed in transfected cells
T1 sequence (P08908 1-422): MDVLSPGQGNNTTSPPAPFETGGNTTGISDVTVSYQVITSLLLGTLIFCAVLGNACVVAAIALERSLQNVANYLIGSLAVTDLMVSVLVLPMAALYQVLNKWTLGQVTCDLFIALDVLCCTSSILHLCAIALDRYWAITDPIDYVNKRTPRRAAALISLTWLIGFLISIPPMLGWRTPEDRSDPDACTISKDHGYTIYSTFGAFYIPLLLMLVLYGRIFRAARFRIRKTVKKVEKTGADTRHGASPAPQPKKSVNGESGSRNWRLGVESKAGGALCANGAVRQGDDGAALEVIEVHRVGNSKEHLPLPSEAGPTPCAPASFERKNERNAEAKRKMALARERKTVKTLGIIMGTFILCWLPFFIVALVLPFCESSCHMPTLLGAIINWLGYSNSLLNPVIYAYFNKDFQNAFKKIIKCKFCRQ
Briefly: 5-HT1A receptor cAMP agonist test. Format: cell-based. To be noted: HEK293 cell strain stably expressing 5-HT1A receptor.

The target in another experiment is 5-HT2A receptor (Homo sapiens, UniProt P28223). Briefly: Calcium flux test for 5-HT2A receptor. Format: cell-based. To be noted: CHO cell strain stably expressing 5-HT2A receptor.
5-HT2A receptor, sequence (P28223 whole entry): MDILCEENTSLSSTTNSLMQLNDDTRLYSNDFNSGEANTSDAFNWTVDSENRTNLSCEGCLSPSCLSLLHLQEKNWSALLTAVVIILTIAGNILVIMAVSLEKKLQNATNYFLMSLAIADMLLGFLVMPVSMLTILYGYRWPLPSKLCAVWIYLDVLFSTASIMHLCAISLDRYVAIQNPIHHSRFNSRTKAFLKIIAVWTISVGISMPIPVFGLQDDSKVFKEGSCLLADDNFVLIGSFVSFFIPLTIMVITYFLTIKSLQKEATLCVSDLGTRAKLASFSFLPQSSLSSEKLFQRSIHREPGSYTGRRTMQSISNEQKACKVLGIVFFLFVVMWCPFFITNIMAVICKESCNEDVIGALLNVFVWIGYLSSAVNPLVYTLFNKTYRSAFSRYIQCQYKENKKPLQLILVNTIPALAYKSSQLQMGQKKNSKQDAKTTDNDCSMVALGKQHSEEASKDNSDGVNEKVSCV

As to `O=C1Nc2cc(OCCCCN3CCN(c4cccc(Cl)c4Cl)CC3)ccc2C2CC12` (stereo not shown) [Example 1, 5-(4-(4-(2,3-Dichlorophenyl)piperazin-1-yl)butoxy)-3,7b-dihydro-1H-cyclopropa[c]quinolin-2(1aH)-one], the concentration for a half-maximal effect (EC50) on 5-HT1A receptor (cAMP, forskolin 2.5×10^−7 M) worked out at 1010 nM. Also, the “5-HT1A Max Act %” value at 5-HT1A receptor (positive control serotonin 10^−6 M) was 50.2%. Moreover, the 50% inhibitory concentration (IC50) at 5-HT2A receptor (calcium flux, antagonism of serotonin) amounted to 731 nM. Further, the “5-HT2A Max Inh %” value on 5-HT2A receptor (positive control ketanserin 10^−7 M) was found to be 98.4%.
